The record followed here is patent US11279714B2, “Anti-infective compounds” (priority 2014, dated 2022).

Each structure is given as a SMILES string. Values after ≈ are worked out from the molar mass of the structure shown. Where only a bound is given, the exact number is not on record here.

The first test concerns Raw 264.7 cells infected with H37Rv-GFP. Description: microbe, parasite or virus in culture. The class given is cell-based, M. tuberculosis.
Conditions: not given
Take `CN(C)C(=O)C1CCN(c2nc3sc(C(=O)Nc4ccc(-c5ccc(F)cc5)cn4)cc3s2)CC1.CS(=O)(=O)O` [Compound 283]: the “QIM (MIC50, uM)” value is “+++ (+++ indicates <1 uM)”.

In the case of `CN(C)C(=O)C1CCN(c2nc3sc(C(=O)Nc4ccc(-c5ccc(F)cc5)nc4)cc3s2)CC1.Cl` [Compound 259], the “QIM (MIC50, uM)” value was “+++ (+++ indicates <1 uM)”.

Staying with this test, now noted: Mycobacterium tuberculosis, H37RV, 120 h; read-out: QIM (MIC50).
On to `COCCN(C)c1nc2sc(C(=O)Nc3ccc(-c4ccc(F)cc4)cn3)cc2s1` [Compound 273], for which the MIC50 was less than 1 µM.

For the compound `CN(C)C(=O)C1CCN(c2nc3sc(C(=O)Nc4ccc(-c5ccc(F)cc5)nc4)cc3s2)CC1` [Compound 231], the MIC50 is less than 1 µM.

Turning to `Cc1nc2cc(NC(=O)c3cc4sc(N(C)CCN(C)C)nc4s3)ccc2o1` [Compound 253], the MIC50 is 1 to 20 µM (≈ 0.416 to 8.31 µg/mL).

For the compound `CN(C)C(=O)C1CCN(c2nc3sc(C(=O)Nc4ccc(-c5ccc(F)cn5)cc4)cc3s2)CC1` [Compound 268], the MIC50 was less than 1 µM.

As to `COc1ccc(NC(=O)c2cc3sc(N4CCCCC4)nc3s2)c(OC)c1OC` [Compound 300], the MIC50 was greater than 20 µM.

In the case of `COc1ccc(NC(=O)c2cc3sc(N4CCCCC4)nc3s2)c(OC)c1` [Compound 286], the MIC50 is greater than 20 µM.

Take `O=C(Nc1ccc(-c2ccc(F)cn2)cc1)c1cc2sc(NCCN3CCOCC3)nc2s1` [Compound 293]: the MIC50 was less than 1 µM.

Take `Cc1nc2cc(NC(=O)c3cc4sc(N(C)CCC(=O)N(C)C)nc4s3)ccc2o1` [Compound 264]: the MIC50 was 1 to 20 µM (≈ 0.444 to 8.87 µg/mL).

Regarding `Cc1nc2cc(NC(=O)c3cc4sc(N(C)CCOc5ccccc5)nc4s3)ccc2o1` [Compound 256], the MIC50 is less than 1 µM.

With `COCCCN(C)c1nc2sc(C(=O)Nc3ccc4oc(C)nc4c3)cc2s1` [Compound 254], the MIC50 is less than 1 µM.

Take `N#Cc1ccc(NC(=O)c2cc3sc(NCCN4CCOCC4)nc3s2)cc1` [Compound 303]: the MIC50 was greater than 20 µM.

Regarding `CN(C)C(=O)C1CCN(c2nc3sc(C(=O)Nc4ccc(-c5n[nH]cc5Cl)cc4)cc3s2)CC1` [Compound 280], the MIC50 is greater than 20 µM.

In the case of `Cc1nc2cc(NC(=O)c3cc4sc(N(C)CCN5CCC5)nc4s3)ccc2o1` [Compound 257], the MIC50 was greater than 20 µM.

`CN(CCO)c1nc2sc(C(=O)Nc3ccc(-c4nn(C)cc4Cl)cc3)cc2s1` [Compound 279]: the MIC50 lay within 1 to 20 µM (≈ 0.448 to 8.96 µg/mL).

Consider `Cc1nc2cc(NC(=O)c3cc4sc(N(C)CCOC(C)C)nc4s3)ccc2o1` [Compound 255], for which the MIC50 is greater than 20 µM.

Turning to `COc1ccc(NC(=O)c2cc3sc(N4CCCCC4)nc3s2)cc1OC` [Compound 285], the MIC50 is less than 1 µM.

As for `CN(CCO)c1nc2sc(C(=O)Nc3ccc(-c4n[nH]cc4Cl)cc3)cc2s1` [Compound 281], the MIC50 lay within 1 to 20 µM (≈ 0.434 to 8.68 µg/mL).

Another test concerns M. tuberculosis H37Rv expressing the green fluorescent protein (H37Rv-GFP). Description: microbe, parasite or virus in culture. The class given is cell-based. The note with it: Mycobacterium tuberculosis, H37RV, 120 h; read-out: QUM (MIC50).
With `COCCN(C)c1nc2sc(C(=O)Nc3ccc(-c4ccc(F)cc4)cn3)cc2s1` [Compound 273], the MIC50 is 1 to 20 µM (≈ 0.443 to 8.85 µg/mL).

With `CN(C)C(=O)C1CCN(c2nc3sc(C(=O)Nc4ccc(-c5ccc(F)cc5)nc4)cc3s2)CC1` [Compound 231], the MIC50 was less than 1 µM.

Consider `O=C(Nc1ccc(F)cc1)c1cc2sc(N3CCN4CCCC4C3)nc2s1` (centres unmarked) [Compound 322], for which the MIC50 lay in the range of 1 to 20 µM (≈ 0.403 to 8.05 µg/mL).

Turning to `CN(C)C(=O)C1CCN(c2nc3sc(C(=O)Nc4ccc(N5CCOCC5)cc4)cc3s2)CC1` [Compound 352], the MIC50 was less than 1 µM.

Consider `CN(C)C(=O)C1CCN(c2nc3sc(C(=O)Nc4ccc(-c5ccc(F)cn5)cc4)cc3s2)CC1` [Compound 284], for which the MIC50 was less than 1 µM.

Turning to `CN(C)C(=O)C1CCN(CCNc2nc3sc(C(=O)Nc4ccc(-c5ccc(F)cn5)cc4)cc3s2)CC1` [Compound 355], the MIC50 was in the range of 1 to 20 µM (≈ 0.553 to 11.1 µg/mL).

Consider `CN(C)C(=O)C1CCN(c2nc3sc(C(=O)Nc4ccc(CN5CCOCC5)cc4)cc3s2)CC1` [Compound 353], for which the MIC50 is 1 to 20 µM (≈ 0.514 to 10.3 µg/mL).

With `CN1CCCC(Nc2nc3sc(C(=O)Nc4ccc(-c5ccc(F)nc5)cc4)cc3s2)C1` (centres unmarked) [Compound 354], the MIC50 fell in the range of 1 to 20 µM (≈ 0.468 to 9.35 µg/mL).

Regarding `Cc1nc2cc(NC(=O)c3cc4sc(NC5CCN(Cc6ccc(F)cc6)CC5)nc4s3)ccc2o1` [Compound 357], the MIC50 lay in the range of 1 to 20 µM (≈ 0.522 to 10.4 µg/mL).

Turning to `Cc1nc2cc(NC(=O)c3cc4sc(NC5CCN(C)CC5)nc4s3)ccc2o1` [Compound 356], the MIC50 is greater than 20 µM.
